Test results taken from PubChem BioAssay AID2060501 (Molecular Pharmacology Branch, DTP, NCI, 2025).
pIC50: −log10 of the molar value. Blank lines part the entries; values can stand above or below the compound they belong to.

System: 282377-053-R-J1-PDC complex spheroids, viability
Assay: Anticancer human tumor 282377-053-R-J1-PDC patient-derived colon adenocarcinoma cell line growth inhibition [GQUAD]
Settings: for pIC50: curve of first compound; for viability, T/C: stronger effect = lower value
In short: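 Tumor cells were grown as complex spheroids with HUVEC endothelial cells and mesenchymal stem cells as stroma. G-quadruplex stabilizers were combined with targeted agents over half-log dilutions from near the clinical Cmax, or from 10 microM.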

[1] = second compound 0.0316 µM, first compound 0.0316 µM
[2] = second compound 0.0316 µM, first compound 0.1 µM
[3] = second compound 0.0316 µM, first compound 0.316 µM
[4] = second compound 0.0316 µM, first compound 1 µM
[5] = second compound 0.0316 µM, first compound 3.16 µM
[6] = second compound 0.0316 µM, first compound 10 µM
[7] = second compound 0.1 µM, first compound 0.0316 µM
[8] = second compound 0.1 µM, first compound 0.1 µM
[9] = second compound 0.1 µM, first compound 0.316 µM
[10] = second compound 0.1 µM, first compound 1 µM
[11] = second compound 0.1 µM, first compound 3.16 µM
[12] = second compound 0.1 µM, first compound 10 µM
[13] = second compound 0.316 µM, first compound 0.0316 µM
[14] = second compound 0.316 µM, first compound 0.1 µM
[15] = second compound 0.316 µM, first compound 0.316 µM
[16] = second compound 0.316 µM, first compound 1 µM
[17] = second compound 0.316 µM, first compound 3.16 µM
[18] = second compound 0.316 µM, first compound 10 µM
[19] = second compound 1 µM, first compound 0.0316 µM
[20] = second compound 1 µM, first compound 0.1 µM
[21] = second compound 1 µM, first compound 0.316 µM
[22] = second compound 1 µM, first compound 1 µM
[23] = second compound 1 µM, first compound 3.16 µM
[24] = second compound 1 µM, first compound 10 µM
[25] = second compound 3.16 µM, first compound 0.0316 µM
[26] = second compound 3.16 µM, first compound 0.1 µM
[27] = second compound 3.16 µM, first compound 0.316 µM
[28] = second compound 3.16 µM, first compound 1 µM
[29] = second compound 3.16 µM, first compound 3.16 µM
[30] = second compound 3.16 µM, first compound 10 µM
[31] = second compound 10 µM, first compound 0.0316 µM
[32] = second compound 10 µM, first compound 0.1 µM
[33] = second compound 10 µM, first compound 0.316 µM
[34] = second compound 10 µM, first compound 1 µM
[35] = second compound 10 µM, first compound 3.16 µM
[36] = second compound 10 µM, first compound 10 µM
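Further: spheroids exposed to compounds for 7 days before readout.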
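Wherever viability, T/C is given: percent of vehicle DMSO control viability with 100% = untreated-like growth.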

pIC50 (second compound 0.0316 µM): < 5.00
pIC50 (second compound 0.1 µM): 5.01
pIC50 (second compound 0.316 µM): < 5.00
pIC50 (second compound 1 µM): < 5.00
pIC50 (second compound 3.16 µM): 6.01
pIC50 (second compound 10 µM): 6.47
Compound: COc1cc(C2c3cc4c(cc3C(OC3OC5COC(C)OC5C(O)C3O)C3COC(=O)C23)OCO4)cc(OC)c1O (stereo not drawn) + Cc1cnc(CNC(=O)c2c(=O)c3ccc(N4CCCN(C)CC4)nc3n3c2sc2ccccc23)cn1
viability, T/C [1]: 127%
viability, T/C [2]: 95%
viability, T/C [3]: 126%
viability, T/C [4]: 90%
viability, T/C [5]: 68.3%
viability, T/C [6]: 50.8%
viability, T/C [7]: 109%
viability, T/C [8]: 91.3%
viability, T/C [9]: 107%
viability, T/C [10]: 76.1%
viability, T/C [11]: 72.7%
viability, T/C [12]: 48.6%
viability, T/C [13]: 103%
viability, T/C [14]: 91.9%
viability, T/C [15]: 87.1%
viability, T/C [16]: 68.8%
viability, T/C [17]: 66.4%
viability, T/C [18]: 50.9%
viability, T/C [19]: 70.7%
viability, T/C [20]: 51.3%
viability, T/C [21]: 70.2%
viability, T/C [22]: 63%
viability, T/C [23]: 62.7%
viability, T/C [24]: 41.6%
viability, T/C [25]: 60.5%
viability, T/C [26]: 57.5%
viability, T/C [27]: 49.8%
viability, T/C [28]: 48.5%
viability, T/C [29]: 52.1%
viability, T/C [30]: 37.4%
viability, T/C [31]: 45.4%
viability, T/C [32]: 49.7%
viability, T/C [33]: 56.3%
viability, T/C [34]: 49.1%
viability, T/C [35]: 42.1%
viability, T/C [36]: 26.3%

pIC50 (second compound 0.0316 µM): 6.01
pIC50 (second compound 0.1 µM): 6.10
pIC50 (second compound 0.316 µM): 6.26
pIC50 (second compound 1 µM): 6.48
pIC50 (second compound 3.16 µM): 6.53
pIC50 (second compound 10 µM): > 7.50
Compound: COc1cccc2c1C(=O)c1c(O)c3c(c(O)c1C2=O)CC(O)(C(=O)CO)CC3OC1CC(N)C(O)C(C)O1 (stereo not drawn) + Cc1cnc(CNC(=O)c2c(=O)c3ccc(N4CCCN(C)CC4)nc3n3c2sc2ccccc23)cn1
viability, T/C [1]: 140%
viability, T/C [2]: 118%
viability, T/C [3]: 83.6%
viability, T/C [4]: 55.6%
viability, T/C [5]: 11.3%
viability, T/C [6]: 1.72%
viability, T/C [7]: 99.8%
viability, T/C [8]: 97.5%
viability, T/C [9]: 82%
viability, T/C [10]: 41.1%
viability, T/C [11]: 13.1%
viability, T/C [12]: 1.51%
viability, T/C [13]: 91.6%
viability, T/C [14]: 95.1%
viability, T/C [15]: 55.5%
viability, T/C [16]: 38.9%
viability, T/C [17]: 11.9%
viability, T/C [18]: 1%
viability, T/C [19]: 68.2%
viability, T/C [20]: 59.6%
viability, T/C [21]: 44.3%
viability, T/C [22]: 44.8%
viability, T/C [23]: 8.25%
viability, T/C [24]: 0.83%
viability, T/C [25]: 56.4%
viability, T/C [26]: 62%
viability, T/C [27]: 41.3%
viability, T/C [28]: 40.1%
viability, T/C [29]: 8.56%
viability, T/C [30]: 0.74%
viability, T/C [31]: 54.4%
viability, T/C [32]: 46.4%
viability, T/C [33]: 47%
viability, T/C [34]: 39.9%
viability, T/C [35]: 2.37%
viability, T/C [36]: 0.53%

pIC50 (second compound 0.0316 µM): 6.80
pIC50 (second compound 0.1 µM): 6.84
pIC50 (second compound 0.316 µM): 6.92
pIC50 (second compound 1 µM): 7.31
pIC50 (second compound 3.16 µM): > 7.50
pIC50 (second compound 10 µM): > 7.50
Compound: Nc1ccn(C2OC(CO)C(O)C2(F)F)c(=O)n1 (stereo not drawn) + Cc1cnc(CNC(=O)c2c(=O)c3ccc(N4CCCN(C)CC4)nc3n3c2sc2ccccc23)cn1
viability, T/C [1]: 98.5%
viability, T/C [2]: 65.9%
viability, T/C [3]: 25.2%
viability, T/C [4]: 24%
viability, T/C [5]: 22.9%
viability, T/C [6]: 16.7%
viability, T/C [7]: 104%
viability, T/C [8]: 61.7%
viability, T/C [9]: 24.5%
viability, T/C [10]: 24.9%
viability, T/C [11]: 25.1%
viability, T/C [12]: 16.3%
viability, T/C [13]: 81.6%
viability, T/C [14]: 53.6%
viability, T/C [15]: 32%
viability, T/C [16]: 22.1%
viability, T/C [17]: 22.7%
viability, T/C [18]: 16.2%
viability, T/C [19]: 53.9%
viability, T/C [20]: 44.1%
viability, T/C [21]: 25.6%
viability, T/C [22]: 22.4%
viability, T/C [23]: 20.4%
viability, T/C [24]: 15.7%
viability, T/C [25]: 49.1%
viability, T/C [26]: 37.5%
viability, T/C [27]: 23.2%
viability, T/C [28]: 21%
viability, T/C [29]: 22.4%
viability, T/C [30]: 15.9%
viability, T/C [31]: 39.2%
viability, T/C [32]: 33.5%
viability, T/C [33]: 22.1%
viability, T/C [34]: 20.3%
viability, T/C [35]: 20%
viability, T/C [36]: 10.8%

pIC50 (second compound 0.0316 µM): < 5.00
pIC50 (second compound 0.1 µM): < 5.00
pIC50 (second compound 0.316 µM): < 5.00
pIC50 (second compound 1 µM): < 5.00
pIC50 (second compound 3.16 µM): < 5.00
pIC50 (second compound 10 µM): > 7.50
Compound: O=c1[nH]cc(F)c(=O)[nH]1 + Cc1cnc(CNC(=O)c2c(=O)c3ccc(N4CCCN(C)CC4)nc3n3c2sc2ccccc23)cn1
viability, T/C [1]: 98.6%
viability, T/C [2]: 92.1%
viability, T/C [3]: 114%
viability, T/C [4]: 82.9%
viability, T/C [5]: 77%
viability, T/C [6]: 65.4%
viability, T/C [7]: 94.6%
viability, T/C [8]: 97.7%
viability, T/C [9]: 107%
viability, T/C [10]: 76.2%
viability, T/C [11]: 76.1%
viability, T/C [12]: 65%
viability, T/C [13]: 78.3%
viability, T/C [14]: 82.6%
viability, T/C [15]: 81.4%
viability, T/C [16]: 76.3%
viability, T/C [17]: 68.5%
viability, T/C [18]: 62.8%
viability, T/C [19]: 51.3%
viability, T/C [20]: 51.8%
viability, T/C [21]: 62.5%
viability, T/C [22]: 56.8%
viability, T/C [23]: 55.6%
viability, T/C [24]: 48.3%
viability, T/C [25]: 54.8%
viability, T/C [26]: 50.1%
viability, T/C [27]: 49%
viability, T/C [28]: 44.2%
viability, T/C [29]: 63.6%
viability, T/C [30]: 53.9%
viability, T/C [31]: 46.4%
viability, T/C [32]: 45.7%
viability, T/C [33]: 54.5%
viability, T/C [34]: 52.5%
viability, T/C [35]: 54.5%
viability, T/C [36]: 34.9%
